Laboratory results published in patent publication US20210093531A1, “DERIVATIVES OF MENTHOL AND USES THEREOF” (Board of Trustees of Northern Illinois University, priority 2019, published 2021).
Marks after values point to notes of the source that are not given here.

Experiments:
trained panelists = assay: time-intensity analysis of cooling, mouthwash application; assay type: in vivo; conditions: for Iext (cooling intensity at end of evaluation): 15 minutes after expectoration
Method: In order to evaluate the potential use of menthol glycinates as […] different food, beverage and oral hygiene products, select compounds were incorporated in different application systems. A beverage model system, a lozenge and a mouthwash application were created, and time-intensity analysis was performed using trained discrimination analysis panelists. Time-Intensity (TI) is a temporal sensory method. During TI evaluations, assessors are asked to score the intensity of perception of a single attribute over consumption of the product. Compared to single point measurements, TI analysis can characterize the onset, decline and rates thereof, of particular sensory characteristics. This analysis may reveal rich information regarding the intensity of an attribute over the time domain and identify temporal perceptual differences among samples that can greatly impact the overall profile of a product. For each sample evaluation, a temporal curve is generated, based on duplication. The temporal curves for each panelist are combined to generate a combined curve for each product that is evaluated. The following distinct parameters were calculated: Imax: peak intensity or maximum observed intensity on the whole curve; […]: time point where the reaction to the stimulus is first perceived on the curve; Tmax: time position of the peak intensity on the curve; Tplateau: protraction of maximum intensity or duration of maximum intensity; Text: time point of extinction of the perception of the stimulus, defined as the position in time after the peak intensity where the measured intensity disappears (or the end of evaluation window); Iext: intensity at time of extinction or end of evaluation; R increase: slope or rate of intensity increase between […] and Tmax; R decrease: slope or rate of intensity decrease between Tmax and Text; and Area: the total area under the time-intensity curve. The formula shown in Table 8 was employed to create a mouthwash product to evaluate […] of interest using time-Intensity analysis. [table] The following test compounds were evaluated: menthol, XI-I-60, RK-2-10, XI-I-65, DK-1-50, and XI-2-73. For time-intensity (T-I) evaluation of the cooling attributes of mouthwash products, 8 panelists were recruited (2 male, 6 female). Panelists were trained in basic taste descriptive analysis. A sweetness reference series (intensity range 2-12) was provided to be used as cross-modality reference to aid in scaling the intensity of the cooling attribute present in the mouthwash samples. Panelists evaluated samples in duplicates and all sample were presented blinded and in a randomized order using a 3-digit code. Panelist evaluated 15 ml of mouthwash at a time and were instructed to rinse for 30 seconds and expectorate. Panelists were instructed to provide cooling intensities before and after expectoration. For the time before expectoration, evaluation started upon introducing the sample and every 10 seconds thereafter. After expectoration, the evaluation continued for 15 minutes and panelists provided cooling intensity ratings at predetermined times. Due to the unique nature of this product and the interest in prolonging the cooling attribute long after consumption, an additional parameter led was evaluated among samples via ANOVA. This parameter is the cooling intensity at time of extinction or in our case the end of evaluation. Data analysis for generation of T-I statistics and ANOVA analysis to determine significant difference among samples was performed using R STUDIO.

[1] = taste dilution tests; cited from earlier work
[2] = after expectoration for 15 minutes (Table 9b)
[3] = rinse phase 30 seconds (Table 9a)

For “(1R,2S,5R)-2-Isopropyl-5-methylcyclohexyl 2-(isopropylamino)acetate [Product 7]”, the “Iext (cooling intensity at end of evaluation)” value (shortened to “Iext”) (trained panelists) was 1.23^a, the AUC (trained panelists; [2]) was 4344.50^ac and the I max (trained panelists; [2]) was 12.33^ab. For the same molecule, the Rdec (trained panelists; [2]) was −0.01^b, the Rinc (trained panelists; [2]) was 0.00^a and the Tmax (trained panelists; [2]) was 36.00^a. For the same molecule, the Tstart (trained panelists; [2]) was 30.00^a, the AUC (trained panelists; [3]) was 170.50^a and the Imax (trained panelists; [3]) was 12.43^a. The Rinc (trained panelists; [3]) was 0.20^a and the Tstart (trained panelists; [3]) was 11.00^a.

With `CC1CCC(C(C)C)C(O)C1` (stereo not shown) [Menthol, menthol] the “Iext” value (trained panelists) was 1^a, the AUC (trained panelists; [2]) was 3608.38^a and the I max (trained panelists; [2]) was 12.01^a^. The Rdec (trained panelists; [2]) was −0.03^a, the Rinc (trained panelists; [2]) was 0.00^a and the Tmax (trained panelists; [2]) was 33.53^a. The Tstart (trained panelists; [2]) was 30.00^a, the AUC (trained panelists; [3]) was 168.97^a and the Imax (trained panelists; [3]) was 12.56^a. For the same molecule, the Rdec (trained panelists; [3]) was −0.09^a, the Rinc (trained panelists; [3]) was 0.21^a and the Tstart (trained panelists; [3]) was 10.88^a. For the same molecule, the cooling threshold [1] was 0.8 ppm.

With `CCCCN(CCCC)CC(=O)O[C@@H]1C[C@H](C)CC[C@H]1C(C)C` [Product 10, (1R,2S,5R)-2-Isopropyl-5-methylcyclohexyl 2-(dibutylamino)acetate] the “Iext” value (trained panelists) was 0.9^a, the AUC (trained panelists; [2]) was 4105.91^ac and the I max (trained panelists; [2]) was 12.65^ab. The Rdec (trained panelists; [2]) was −0.01^b, the Tmax (trained panelists; [2]) was 30.00^a and the Tstart (trained panelists; [2]) was 30.00^a. The AUC (trained panelists; [3]) was 182.05^a, the Imax (trained panelists; [3]) was 12.82^a and the Rinc (trained panelists; [3]) was 0.18^b. The Tstart (trained panelists; [3]) was 10.91^a.

With `CC(C)[C@@H]1CC[C@@H](C)C[C@H]1OC(=O)CN(C)C(C)C` [Product 16, (1R,2S,5R)-2-Isopropyl-5-methylcyclohexyl 2-(isopropyl(methyl)amino)acetate] the “Iext” value (trained panelists) was 2.33^b, the AUC (trained panelists; [2]) was 5565.00^b and the I max (trained panelists; [2]) was 13.37^ab. The Rdec (trained panelists; [2]) was −0.01^b, the Rinc (trained panelists; [2]) was 0.03^b and the Tmax (trained panelists; [2]) was 32.73^a. The Tstart (trained panelists; [2]) was 30.00^a, the AUC (trained panelists; [3]) was 180.91^a and the Imax (trained panelists; [3]) was 13.09^a. For the same molecule, the Rdec (trained panelists; [3]) was 0.00^b, the Rinc (trained panelists; [3]) was 0.23^a and the Tstart (trained panelists; [3]) was 10.00^a.
